From ChEMBL document CHEMBL3792312, “Synthesis and docking studies of pyrazine-thiazolidinone hybrid scaffold targeting dormant tuberculosis” (Bioorg Med Chem Lett, 2016)
Values after ≈ are worked out from the molar mass of the structure shown.

How the values were obtained:
[1] = system: Mycobacterium tuberculosis; test: Antitubercular activity against dormant Mycobacterium tuberculosis H37Ra after 12 days by XTT-Menadione assay; format: functional, organism-based; details: 288 h
Pseudomonas fluorescens [2] = test: Antibacterial activity against Pseudomonas fluorescens at 10 ug after 8 hrs; format: functional
Pseudomonas fluorescens [3] = test: Antibacterial activity against Pseudomonas fluorescens at 30 ug after 8 hrs; format: functional
[4] = (§1) Cytotoxicity against human MCF7 cells after 4 days by MTT assay; format: cell-based; details: human, MCF7 cells; read-out: MIC
MCF7 = test: as §1; format: cell-based; details: Homo sapiens, MCF7, 96 h
[5] = system: Mycobacterium tuberculosis; test: Antitubercular activity against dormant Mycobacterium tuberculosis H37Ra at 30 ug after 12 days by XTT-Menadione assay; format: functional
Escherichia coli [6] = test: Antibacterial activity against Escherichia coli at 10 ug after 8 hrs; format: functional
Escherichia coli [7] = test: Antibacterial activity against Escherichia coli at 3 ug after 8 hrs; format: functional
[8] = system: Mycobacterium tuberculosis; test: Antitubercular activity against dormant Mycobacterium tuberculosis H37Ra at 10 ug after 12 days by XTT-Menadione assay; format: functional
Bacillus subtilis [9] = test: Antibacterial activity against Bacillus subtilis at 30 ug after 12 hrs; format: functional
Bacillus subtilis [10] = test: Antibacterial activity against Bacillus subtilis at 10 ug after 12 hrs; format: functional
[11] = system: Mycobacterium tuberculosis; test: Antitubercular activity against dormant Mycobacterium tuberculosis H37Ra at 3 ug after 12 days by XTT-Menadione assay; format: functional
Pseudomonas fluorescens [12] = test: Antibacterial activity against Pseudomonas fluorescens at 3 ug after 8 hrs; format: functional
Staphylococcus aureus [13] = test: Antibacterial activity against Staphylococcus aureus at 3 ug after 12 hrs; format: functional
[14] = Cytotoxicity against human PANC1 cells after 5 days by MTT assay; format: cell-based, PANC-1; details: for IC50: Homo sapiens, PANC-1, 120 h; for MCC at 120 h: human, PANC1 cells, read-out: MIC
[15] = Cytotoxicity against human THP1 cells after 5 days by MTT assay; format: cell-based, THP-1; details: for IC50: Homo sapiens, THP-1, 120 h; for MCC at 120 h: human, THP1 cells, read-out: MIC
Staphylococcus aureus [16] = test: Antibacterial activity against Staphylococcus aureus at 10 ug after 12 hrs; format: functional
[17] = system: Mycolicibacterium smegmatis; test: Antitubercular activity against dormant Mycobacterium smegmatis MC2 155 at 10 ug after 12 days by XTT-Menadione assay; format: functional, str. MC2 155
Staphylococcus aureus [18] = test: Antibacterial activity against Staphylococcus aureus at 30 ug after 12 hrs; format: functional
[19] = (§2) Cytotoxicity against human A549 cells after 3 days by MTT assay; format: cell-based; details: human, A549 cells; read-out: MIC
A549 = test: as §2; format: cell-based; details: Homo sapiens, A549, 72 h
[20] = system: Mycolicibacterium smegmatis; test: Antitubercular activity against dormant Mycobacterium smegmatis MC2 155 at 3 ug after 12 days by XTT-Menadione assay; format: functional, str. MC2 155
[21] = system: Mycolicibacterium smegmatis; test: Antitubercular activity against dormant Mycobacterium smegmatis MC2 155 at 30 ug after 12 days by XTT-Menadione assay; format: functional, str. MC2 155
Bacillus subtilis [22] = test: Antibacterial activity against Bacillus subtilis at 3 ug after 12 hrs; format: functional
Escherichia coli [23] = test: Antibacterial activity against Escherichia coli at 30 ug after 8 hrs; format: functional

SMILES | IC50 [1] | MIC [1] | inhibition (INH) (Pseudomonas fluorescens [2]) | inhibition (INH) (Pseudomonas fluorescens [3]) | MCC at 96 h [4] | IC50 (MCF7) | inhibition (INH) [5] | inhibition (INH) (Escherichia coli [6]) | inhibition (INH) (Escherichia coli [7]) | inhibition (INH) [8] | inhibition (INH) (Bacillus subtilis [9]) | inhibition (INH) (Bacillus subtilis [10]) | inhibition (INH) [11] | inhibition (INH) (Pseudomonas fluorescens [12]) | inhibition (INH) (Staphylococcus aureus [13]) | IC50 [14] | MCC at 120 h [14] | IC50 [15] | MCC at 120 h [15] | inhibition (INH) (Staphylococcus aureus [16]) | also measured
COc1cc([C@@H]2SCC(=O)N2NC(=O)c2cnc(C)cn2)ccc1O | 0.997 µg/mL (≈ 2.77 µM) | 27.9 µg/mL (≈ 77.3 µM) | 33.16% | 47.41% | > 100 µg/mL | 70.2 µg/mL (≈ 195 µM) | 91.2% | -54.14% | 33.04% | 70.7% | 19.67% | 8.59% | 66.03% | -2.64% | 42.47% | > 100 µg/mL | > 100 µg/mL | 86.9 µg/mL (≈ 241 µM) | > 100 µg/mL | 23.58% | inhibition (INH) [17]: 33.4%; inhibition (INH) (Staphylococcus aureus [18]): -0.17%; MCC at 72 h [19]: > 100 µg/mL; IC50 (A549): 62.3 µg/mL (≈ 173 µM); inhibition (INH) [20]: -19.102%; inhibition (INH) [21]: -19.0256%; inhibition (INH) (Bacillus subtilis [22]): 14.34%; inhibition (INH) (Escherichia coli [23]): -53.27%
Nc1nccnc1C(=O)NN1C(=O)CSC1c1ccccc1 (stereo unspecified) | 0.909 µg/mL (≈ 2.88 µM) | 28 µg/mL (≈ 88.9 µM) | 3.29% | 30.72% | > 100 µg/mL | 81.3 µg/mL (≈ 258 µM) | 91.57% | -71.2% | -94.8% | 71.09% | 19.82% | -6.1% | 70.02% | 25.98% | -20.13% | > 100 µg/mL | > 100 µg/mL | 89.6 µg/mL (≈ 284 µM) | > 100 µg/mL | 32.35% | inhibition (INH) [17]: 52.56%; inhibition (INH) (Staphylococcus aureus [18]): -1.45%; MCC at 72 h [19]: > 100 µg/mL; IC50 (A549): 77 µg/mL (≈ 244 µM); inhibition (INH) [20]: 43.05%; inhibition (INH) [21]: -60.9565%; inhibition (INH) (Bacillus subtilis [22]): -4.3%; inhibition (INH) (Escherichia coli [23]): 8.78%
O=C(NN1C(=O)CS[C@@H]1c1ccc(Cl)cc1)c1cnccn1 | 1.09 µg/mL (≈ 3.26 µM) | 28.8 µg/mL (≈ 86.1 µM) | 3.658% | 14.72% | > 100 µg/mL | > 100 µg/mL | 91.2% | 38.71% | -35.07% | 66.53% | 17.44% | 9.6% | 66.68% | 8.12% | 8.74% | > 100 µg/mL | > 100 µg/mL | > 100 µg/mL | > 100 µg/mL | 12.54% | inhibition (INH) [17]: -6.521%; inhibition (INH) (Staphylococcus aureus [18]): -47.91%; MCC at 72 h [19]: > 100 µg/mL; IC50 (A549): > 100 µg/mL; inhibition (INH) [20]: 41.55%; inhibition (INH) [21]: -1.593%; inhibition (INH) (Bacillus subtilis [22]): -13.1%; inhibition (INH) (Escherichia coli [23]): 51.04%
Cc1cnc(C(=O)NN2C(=O)CS[C@H]2c2ccc(N(C)C)cc2)cn1 | 2.31 µg/mL (≈ 6.46 µM) | 28.4 µg/mL (≈ 79.5 µM) | 29.04% | 21.18% | > 100 µg/mL | > 100 µg/mL | 91.72% | 28.08% | 35.59% | 65.91% | 3.26% | 2.71% | 60.23% | 12.03% | 34.87% | > 100 µg/mL | > 100 µg/mL | > 100 µg/mL | > 100 µg/mL | 27.85% | inhibition (INH) [17]: 9.803%; inhibition (INH) (Staphylococcus aureus [18]): 22.9%; MCC at 72 h [19]: > 100 µg/mL; IC50 (A549): > 100 µg/mL; inhibition (INH) [20]: -19.7482%; inhibition (INH) [21]: 23.39%; inhibition (INH) (Bacillus subtilis [22]): 5.9%; inhibition (INH) (Escherichia coli [23]): 46.74%
O=C(NN1C(=O)CS[C@@H]1c1ccc([N+](=O)[O-])cc1)c1cnccn1 | 1.47 µg/mL (≈ 4.25 µM) | 29 µg/mL (≈ 84 µM) | 13.35% | -21.38% | > 100 µg/mL | 65.6 µg/mL (≈ 190 µM) | 90.93% | 14.12% | -6.69% | 66.45% | 8.09% | -4.94% | 60.59% | 6.405% | 21.93% | > 100 µg/mL | > 100 µg/mL | 97.7 µg/mL (≈ 283 µM) | > 100 µg/mL | -1.75% | inhibition (INH) [17]: -31.0588%; inhibition (INH) (Staphylococcus aureus [18]): -24.9%; MCC at 72 h [19]: > 100 µg/mL; IC50 (A549): > 100 µg/mL; inhibition (INH) [20]: 36.09%; inhibition (INH) [21]: 9.803%; inhibition (INH) (Bacillus subtilis [22]): 16.03%; inhibition (INH) (Escherichia coli [23]): 9%
CCOc1cc([C@H]2SCC(=O)N2NC(=O)c2nccnc2N)ccc1O | 3.46 µg/mL (≈ 9.22 µM) | 28.6 µg/mL (≈ 76.3 µM) | 20.37% | 40.87% | > 100 µg/mL | 80.8 µg/mL (≈ 215 µM) | 91.26% | -9.65% | -48.72% | 65% | 9.32% | -16.24% | 48.5% | -6.51% | 4.98% | > 100 µg/mL | > 100 µg/mL | 68.9 µg/mL (≈ 183 µM) | > 100 µg/mL | -5.22% | inhibition (INH) [17]: 38.28%; inhibition (INH) (Staphylococcus aureus [18]): 24.55%; MCC at 72 h [19]: > 100 µg/mL; IC50 (A549): 84.2 µg/mL (≈ 224 µM); inhibition (INH) [20]: 12.74%; inhibition (INH) [21]: -15.9058%; inhibition (INH) (Bacillus subtilis [22]): 22.27%; inhibition (INH) (Escherichia coli [23]): -33.02%
Cc1cnc(C(=O)NN2C(=O)CS[C@@H]2c2cccc([N+](=O)[O-])c2)cn1 | 4.29 µg/mL (≈ 11.9 µM) | 29 µg/mL (≈ 80.7 µM) | 33.6% | 42.75% | > 100 µg/mL | > 100 µg/mL | 91.39% | 53.08% | 47.15% | 56.26% | 4.11% | 0.21% | 48.93% | 20.43% | -1.03% | > 100 µg/mL | > 100 µg/mL | > 100 µg/mL | > 100 µg/mL | 33.4% | inhibition (INH) [17]: 20.19%; inhibition (INH) (Staphylococcus aureus [18]): 17.56%; MCC at 72 h [19]: > 100 µg/mL; IC50 (A549): > 100 µg/mL; inhibition (INH) [20]: 57.26%; inhibition (INH) [21]: 19.6%; inhibition (INH) (Bacillus subtilis [22]): 3.26%; inhibition (INH) (Escherichia coli [23]): 70.21%
